Measured values as given in article PMC9317316, “Synthesis and Evaluation of Some New 4H-Pyran Derivatives as Antioxidant, Antibacterial and Anti-HCT-116 Cells of CRC, with Molecular Docking, Antiproliferative, Apoptotic and ADME Investigations” (Pharmaceuticals, 2022).
“And” between values parts separate entries of the source, which are not always exact repeats. Equal entries are not always repeated. Where two headings read alike, the source gives them in different places.

Columns and labels:
[1] = DPPH radical scavenging assay; details: for IC50: 0.03 to 1 mg/mL, 1 h, mean ± SD, triplicate, read-out: IC50 (mM) for DPPH Scavenging Potency
Method: The IC50 values for DPPH were calculated from the plot of the scavenging effect against the compound concentration.
The compounds’ capacities to scavenge the stable radical 1,1 diphenyl-2-picrylhydrazyl (DPPH) formed in solution by donation of a hydrogen atom or an electron was investigated according to the method described by Bersuder and coworkers. Due to the fact that the initial blue/purple solution of diphenyl picrylhydrazine changes to yellow in the presence of compounds with a capacity to scavenge DPPH free radicals, this reaction is used as a measure of a compound’s ability to scavenge any free radical. Briefly, a 0.5 mL volume of DPPH ethanolic solution was mixed with an equal volume of each sample concentration (0.03 to 1 mg/mL), shaken strongly and incubated at room temperature for 1 h in darkness. The absorbance of the residual DPPH radicals was measured at 519 nm and compared to that of the control (without the tested compound). DPPH radical scavenging was calculated using the following formula: Scavenging effect (%) = (1 − Acompound/AControl) × 100, where Acompound and Acontrol are the absorbances of the tested compound and of the control, respectively. A plot of the scavenging effect (%) versus the sample concentration was also performed to determine the compound concentration providing 50% inhibition (IC50).

[2] = system: K. pneumonia (ATCC 700603); experiment: Antibacterial agar diffusion method (inhibition zone); type: cell-based
Method: (§1) The results for the in vitro antibacterial properties of the synthesized compounds against five Gram-positive and four Gram-negative human-pathogenic strains, which were assessed by both the agar diffusion method (based on inhibition zone (IZ)) and the broth dilution bioassay (for the determination of the half-maximal inhibitory concentration (IC50) values), using ampicillin as the reference antibiotic drug, are shown in Table 2 and Table 3.
(§2) The antibacterial activity of all synthesized compounds was evaluated against the Gram-negative strains E. coli (ATCC 25966), K. pneumonia (ATCC 700603), P. aeruginosa (ATCC 27853) and S. enteric (ATCC 43972) and against the Gram-positive strains B. cereus (ATCC 14579), B. subtilis (ATCC 6633), E. faecalis (ATCC 29122), S. aureus (ATCC 25923) and S. epidermidis (ATCC 14990), using the agar diffusion method through measuring the appearance of the inhibition zone on the surface of the top agar, as reported by Berghe and Vlietinck. Ampicillin (10 µg/well) was used as the positive reference standard. Bacterial viability was also investigated by determining the colony-forming ability (CFU) of bacteria incubated at different time intervals without or with appropriate amounts of the compound, which were mixed with 2 ×10^7 CFU/mL in sterile BHI and incubated under shaking for 60 min at 37 °C. Samples were serially diluted into sterile BHI, streaked onto media agar plates and incubated for 24 h at 37 °C. The antibacterial potency of the tested compounds was expressed as the residual number of CFUs with reference to the initial inoculums. The results presented as the half-maximal (50 %) inhibitory concentration (IC50) values are the means of three different measurements.

S. enteric (ATCC 43972) [3] = experiment: as above; type: cell-based
Method: as §1, §2

[4] = system: P. aeruginosa (ATCC 27853); experiment: as above; type: cell-based
Method: as §1, §2

E. coli (ATCC 25966) [5] = experiment: as above; type: cell-based; details: E. coil (ATCC 25966)
Method: as §1, §2

E. faecalis (ATCC 29122) [6] = experiment: as above; type: cell-based
Method: as §1, §2

S. aureus (ATCC 25923) [7] = experiment: as above; type: cell-based
Method: as §1, §2

[8] = system: S. epidermidis (ATCC 14990); experiment: as above; type: cell-based
Method: as §1, §2

B. cereus (ATCC 14579) [9] = experiment: as above; type: cell-based
Method: as §1, §2

B. subtilis (ATCC 6633) [10] = experiment: as above; type: cell-based
Method: as §1, §2

[11] = system: K. pneumonia (ATCC 700603); experiment: Antibacterial viability (CFU) assay, IC50; type: cell-based; details: Klebsiella pneumoniae, ATCC700603
Method: as §1, §2

S. enteric (ATCC 43972) [12] = experiment: Antibacterial viability (CFU) assay, IC50; type: cell-based
Method: as §1, §2

[13] = system: P. aeruginosa (ATCC 27853); experiment: Antibacterial viability (CFU) assay, IC50; type: cell-based; details: Pseudomonas aeruginosa, ATCC27853
Method: as §1, §2

E. coli (ATCC 25966) [14] = experiment: Antibacterial viability (CFU) assay, IC50; type: cell-based; details: Escherichia coli, ATCC25966; E. coil (ATCC 25966)
Method: as §1, §2

E. faecalis (ATCC 29122) [15] = experiment: Antibacterial viability (CFU) assay, IC50; type: cell-based; details: Enterococcus faecalis, ATCC29122
Method: as §1, §2

S. aureus (ATCC 25923) [16] = experiment: Antibacterial viability (CFU) assay, IC50; type: cell-based; details: Staphylococcus aureus, ATCC25923
Method: as §1, §2

[17] = system: S. epidermidis (ATCC 14990); experiment: Antibacterial viability (CFU) assay, IC50; type: cell-based; details: Staphylococcus epidermidis, ATCC14990
Method: as §1, §2

B. cereus (ATCC 14579) [18] = experiment: Antibacterial viability (CFU) assay, IC50; type: cell-based; details: Bacillus cereus, ATCC14579
Method: as §1, §2

B. subtilis (ATCC 6633) [19] = experiment: Antibacterial viability (CFU) assay, IC50; type: cell-based; details: Bacillus subtilis, ATCC6633, B. subtilis (ATCC 6633)
Method: as §1, §2

HCT-116 cells = experiment: Cell viability (cytotoxicity, LDH release) assay; type: cell-based; details: Homo sapiens, 24 h; for viability at 100 µg/mL: read-out: percent of viable cells
Method: The synthesized compounds were also examined at four concentrations (10, 25, 50 and 100 µg/mL) for their cytotoxic effects on human colorectal cancer HCT-116 cells after their incubation together for 24 h.
Cytotoxic potency was examined for a human colon cancer cell line HCT-116 (American Type Culture Collection; Manassas, VA, USA) using various amounts of each compound (10, 25, 50 and 100 µg). Samples were diluted in Dulbecco’s Modified Eagle’s Medium, consisting of 10% Fetal Bovine Serum, and added to cells grown and cultured for 24 h in a 5% CO2-humidified incubator at 37 °C. Then, the activity of lactate dehydrogenase released from damaged cells was determined in the collected supernatant aliquots using an ELISA endpoint assay (Benchmark Plus, Bio-Rad, Hercules, CA, USA). As positive and negative controls, respectively, 0.1% Triton X-100 in the assay medium and the assay medium only were used. Cell viability, shown as mean values ± SDs (n = 3), was expressed as a relative percentage of the OD values determined at 600 nm in compound-treated cells and the control.

[20] = Reducing power assay (FRAC, Fe3+ to Fe2+); details: 0-1 mg/mL, absorbance 700 nm
Method: Secondly, FRAC was determined over the concentration range of 0.0−1 mg/mL via monitoring Fe^3+−Fe^2+ transformation in the presence of the studied compounds and the reference antioxidant BHT to estimate the values of efficient concentration (EC50), expressed in mM.
The reducing power of the studied compounds was assessed according to Oyaizu’s method. Briefly, different concentrations (ranging from 0 to 1 mg/mL) of each tested compound were first mixed with 1 mL of 0.2 M sodium phosphate buffer (pH 6.6) and 1 mL of 1% potassium ferricyanide (K3Fe(CN)6) and incubated at 50 °C for 20 min. After the addition of 1.25 mL of 20% trichloroacetic acid (TCA), the mixture was centrifuged for 10 min at 3000 rpm and the upper layer solution was then mixed with 0.5 mL of 0.1% fresh ferric chloride and an equal volume of deionized water. Finally, the absorption of the resulting mixture was measured at 700 nm using a UV spectrophotometer against distilled water as the blank, while butylated hydroxytoluene (BHT) was used as a positive control. The sample ferric reducing power capability was indicated by increased absorbance.

Q: With COC(=O)C1=C(C)OC(N)=C(C#N)C1c1ccccc1C(=O)O (stereo not drawn) [4a, 6-Amino-4-(2-carboxy-phenyl)-5-cyano-2-methyl-4H-pyran-3-carboxylic acid methyl ester] as the molecule, how does the IC50 [1] read?
A: 2.29 ± 0.134 mM

Q: And the “DPPH Radical Scavenging Effenciency (%) at 1 mg/mL” value [1]?
A: 24.15 ± 1.62%

Q: What about the melting point of the same molecule?
A: 216 to 218 °C

Q: And the “IZ (mm)” value [2]?
A: 2.5 ± 0.7 mm

Q: And the “IZ (mm)” value (S. enteric (ATCC 43972) [3])?
A: 4.5 ± 0.7 mm

Q: And the “IZ (mm)” value [4]?
A: 5.5 ± 0.7 mm

Q: And the “IZ (mm)” value (E. coli (ATCC 25966) [5])?
A: 4.5 ± 0.71 mm

Q: What about the “IZ (mm)” value (E. faecalis (ATCC 29122) [6]) of the same molecule?
A: 9.00 ± 1.41 mm

Q: What about the “IZ (mm)” value (S. aureus (ATCC 25923) [7]) of the same molecule?
A: 8.00 ± 1.41 mm

Q: What about the “IZ (mm)” value [8] of the same molecule?
A: 9.50 ± 0.71 mm

Q: And the “IZ (mm)” value (B. cereus (ATCC 14579) [9])?
A: 7.50 ± 0.71 mm

Q: What about the “IZ (mm)” value (B. subtilis (ATCC 6633) [10]) of the same molecule?
A: 5.20 ± 0.28 mm

Q: What about the IC50 [11] of the same molecule?
A: 131 ± 3.5 µM

Q: And the IC50 (S. enteric (ATCC 43972) [12]; read-out: IC50)?
A: 120 ± 1.91 µM

Q: And the IC50 [13]?
A: 37.6 ± 0.5 µM

Q: And the IC50 (E. coli (ATCC 25966) [14])?
A: 138 ± 6.68 µM

Q: What about the IC50 (E. faecalis (ATCC 29122) [15]) of the same molecule?
A: 49.6 ± 1.81 µM

Q: What about the IC50 (S. aureus (ATCC 25923) [16]) of the same molecule?
A: 41.2 ± 2.48 µM

Q: What about the IC50 [17] of the same molecule?
A: 42.3 ± 1.33 µM

Q: And the IC50 (B. cereus (ATCC 14579) [18])?
A: 71.8 ± 2.04 µM

Q: And the IC50 (B. subtilis (ATCC 6633) [19])?
A: 64.4 ± 3.37 µM

Q: And the viability at 100 µg/mL (HCT-116 cells)?
A: 46%

Q: And the IC50 (HCT-116 cells; read-out: Mean IC50 (µM) of cytotoxicity)?
A: 165 ± 14.4 µM

Q: And the IC50 (HCT-116 cells; read-out: Mean IC50 (µg/mL) of cytotoxicity)?
A: 52 ± 4.54 µg/mL

Q: What about the EC50 [20] of the same molecule?
A: 827 ± 45 µM

Q: What does the source list for CCOC(=O)C1=C(C)OC(N)=C(C#N)C1c1cccc(O)c1Cl (stereo not drawn) [4g, 6-Amino-4-(2-chloro-3-hydroxy-phenyl)-5-cyano-2-methyl-4H-pyran-3-carboxylic acid ethyl ester]?
A: IC50 [1]: 0.329 ± 0.042 mM; DPPH Radical Scavenging Effenciency (%) at 1 mg/mL [1]: 90.50% and 90.50 ± 2.12%; melting point: 212 to 213 °C; IZ (mm) [2]: 11.5 ± 0.7 mm; IZ (mm) [4]: 13.5 ± 0.7 mm; IZ (mm) (E. coli (ATCC 25966) [5]): 11.0 ± 1.41 mm; IZ (mm) (E. faecalis (ATCC 29122) [6]): 24.50 mm and 24.50 ± 0.71 mm; IZ (mm) (S. aureus (ATCC 25923) [7]): 27.50 mm and 27.50 ± 0.71 mm; IZ (mm) [8]: 29.75 mm and 29.75 ± 0.35 mm; IZ (mm) (B. cereus (ATCC 14579) [9]): 29.00 mm and 29.00 ± 1.41 mm; IZ (mm) (B. subtilis (ATCC 6633) [10]): 28.00 mm and 28.00 ± 1.41 mm; IC50 [11]: 61.8 ± 2.99 µM; IC50 (S. enteric (ATCC 43972) [12]): 54.1 µM; IC50 (S. enteric (ATCC 43972) [12]; read-out: IC50): 53 ± 3.29 µM; IC50 [13]: 54.1 ± 4.48 µM; IC50 (E. coli (ATCC 25966) [14]): 61.8 ± 5.38 µM; IC50 (E. faecalis (ATCC 29122) [15]): 31.8 ± 1.49 µM; IC50 (S. aureus (ATCC 25923) [16]): 27.8 ± 1.25 µM; IC50 [17]: 30.3 ± 1.49 µM; IC50 (B. cereus (ATCC 14579) [18]): 29.4 ± 1.49 µM; IC50 (B. subtilis (ATCC 6633) [19]): 25.7 ± 1.7 µM; viability at 100 µg/mL (HCT-116 cells): 86%; EC50 [20]: 72 ± 4 µM
